The source of these data is patent US9328118B2, “Nitrogen-containing bicyclic aromatic heterocyclic compound” (ASTELLAS PHARMA INC., priority 2012, dated 2016).

Assay [1] relates to MHC class II expression in B220 positive B cells of mouse spleen cells. Description: In vitro MHC class II expression inhibitory effect using mouse spleen cells (LPS-stimulated B cells, flow cytometry). It counts as cell-based, C57BL/6 mice. As to conditions: B-cell, C57BL/6 spleen cells, LPS 2 μg/mL, 48 hours, B220 positive B cells, read-out: IC50 value of MHC class II expression inhibition (Data 2). The protocol: Test Example 2 Evaluation of In Vitro MHC Class II Expression Inhibitory Effect Using Mouse Spleen Cells (Cell Evaluation System)
In antigen-presenting cells, the inhibition of cathepsin S inhibits the expression of MHC class II molecules. […] For an increased expression of MI-IC class II in B cells, the inhibitory effect of the compound represented by formula (I) was examined.
First, spleen cells collected from C57BL/6 mice were seeded in a 96-well plate so as to be a 1×10^5 cells/well, then, 5-fold dilution of 10 mM DMSO solution of the test compound was serially performed with RPMI 1640 medium (including 10% fetal bovine serum (FCS), 5×10^−5 M 2-mercaptoethanol, 50 IU/mL penicillin and 50 μg/mL streptomycin) nine times such that the final concentration becomes 0.026 nM to 10 μM, and the resultant products were added thereto (the final DMSO concentration was 0.1%). At the same time, LPS (Sigma L4005) was added to the wells such that the final concentration becomes 2 μg/mL, and culture was performed at 37° C. for 48 hours in 5% CO2. After culturing, the cells were stained at 4° C. for 20 minutes with PE-labeled streptavidin (BD BIOSCIENCE 554061) and biotin-labeled YAe antibody (EBIOSCIENCE 13-5741-85) together with FITC-labeled anti-mouse B220 antibody (BD BIOSCIENCE 553088), and an expression level (fluorescence intensity of YAe-biotin/streptavidin-PE) of MHC class II to which Ea peptide in B220 positive B cells was bonded was measured using a flow cytometry system (Guava EasyCyte Plus System, manufactured by Millipore Corporation). A value at the time of unstimulation of LPS in which the test compound was not added and a value at the time of stimulation of LPS in which the test compound was not added were set to 100% inhibition and 0% inhibition, respectively, then, an inhibition rate at each concentration was determined, and IC50 values were calculated by a linear regression method. In the Table, Ex represents Example compound No., and Data 2 represents an IC50 value (nM).
A general note: A flow cytometer gives signals particle by particle.

The test system of assay [2] is MHC class II expression in peripheral blood B cells. Briefly: Ex vivo MHC class II expression inhibitory effect using mouse peripheral blood after oral administration. It counts as in vivo, C57BL/6 mice. The note with it: blood collected after 3 hours, LPS 15 hours. The method, then: Test Example 3 Evaluation of Ex Vivo MHC Class II Expression Inhibitory Effect Using Mouse Peripheral Blood
The expression inhibitory effect of MHC class II molecules was evaluated in an ex vivo system.
The test compound was orally administered into C57BL/6mice, and the inhibitory effect with respect to the increased expression of MHC class II in B cells in peripheral blood after oral administration was examined. That is, 10 mL/kg of the test compound dissolved in a vehicle (30% propylene glycol solvent (propylene glycol:cured castor oil (HCO40):Tween 80=4:2:1)/HCl (2 equivalents with respect to the test compound)/water) was orally administered (dose: 0.1 mg/kg, 0.3 mg/kg, 1 mg/kg, or 3 mg/kg) to a C57BL/6mice, and the peripheral blood was collected after 3 hours. 10 μL of RPMI 1640 medium (including 5×10^−5 M of 2-mercaptoethanol, 50 IU/mL of penicillin, and 50 μg/mL of streptomycin) or 10 μL of LPS adjusted with the medium such that the final concentration becomes 100 μg/mL was added to 90 μL of the peripheral blood, and culture was performed at 37° C. for 15 hours in 5% CO2. After culturing, the cells were stained at 4° C. for 30 minutes with FITC-labeled anti-mouse I-A/I-E antibody (BD BIOSCIENCE 553623) and PE-labeled B220 antibody (BD BIOSCIENCE 553090), and hemolysis and fixation were performed at 37° C. for 10 minutes using a buffer (BD BIOSCIENCE Phosflow Lyse/Fix Buffer 558049). After washing, using a flow cytometry system (FACSCanto II, manufactured by BD BIOSCIENCE), an expression level of MHC class II on a B220 positive B cell surface was measured by using a fluorescence intensity of FITC (hereinafter, referred to as MFI) as an indicator. The difference between a MFI at the time of stimulation of LPS and a MFI at the time of unstimulation of LPS was set to a ΔMFI, a ΔMFI of a mouse in which 10 mL/kg of only vehicle was administered was set to 1, and the inhibition rate of ΔMFI by the test compound administration was calculated.

Assay [3] concerns OVA specific IgG antibody titer. Description: Antibody production inhibitory effect in mouse OVA-induced antibody production model. The format is in vivo, BALB/c male mice. The protocol:
Test Example 4 Evaluation of Antibody Production Inhibitory Effect in Mouse OVA-Induced Antibody Production Model
Evaluation of an antibody production inhibitory effect in vivo was performed.
The BALB/c male mice were sensitized by intraperitoneal administration of 200 μL of an emulsion consisting of 100 μg of ovalbumin (OVA) (SIGMA A5503) and 100 μL of a complete Freund's adjuvant (CFA) (DIFCO 231131) (Day 0), and a week after that, the mice were sensitized by intraperitoneal administration of 200 μL of an emulsion consisting of 50 μg of OVA and 100 μL of an incomplete Freund's adjuvant (IFA) (DIFCO 263910) (Day 7). The test compound dissolved in a vehicle (30% propylene glycol solvent (propylene glycol:HCO40:Tween 80=4:2:1)/HCl (2 equivalents with respect to the test compound)/water) was orally administered (dose: 0.3 mg/kg, 1 mg/kg, or 3 mg/kg) at 10 mL/kg/day from Day 0 to Day 14, and an OVA specific IgG antibody titer in blood plasma at Day 14 was evaluated. Measurement of antibody titer was carried out using a blood plasma sample which was diluted 40,000 times by an ELISA method, and the antibody titer was represented as a ratio with respect to control blood plasma. An antibody titer of a mouse to which the vehicle was orally administered at 10 mL/kg/day from Day 0 to Day 14 was set to 0% inhibition, an antibody titer of a normal mouse to which the vehicle was orally administered at 10 mL/kg/day from Day 0 to Day 14 and which was not sensitized with OVA was set to 100% inhibition, and the inhibition rate at the time of the test compound administration was calculated.

The subject of the next assay is SLE spontaneous model. Description: SLE onset inhibitory effect in spontaneous model using NZB/W F1 mouse. It counts as in vivo, NZB/W F1 female mice. As to conditions: oral 0.3 mg/kg once a day from 20 weeks old, at 41 weeks old. The protocol: NZB/W F1 mice are used as a model of SLE that spontaneously develops a condition close to humans ([…] et al, Proceedings of the university otago medical school (New Zealand), 1961, Vol. 39, p. 3; Advances in Immunology, 1985, Vol. 37, p. 269-390; Perry et al, Journal of Biomedicine and Biotechnology, 2011, Article ID 271694, Review Article). […] At this time, an individual having greater than 100 mg/dL of urine protein was excluded. […] Furthermore, a pathology evaluation of kidney tissue in the above Test 5 was performed. […] In accordance with histological classification of lupus nephritis by WHO, a histopathological image was classified into Class I (normal glomerulus), Class II (mesangium lesion), Class III (focal segmental glomerulonephritis), Class IV (diffuse glomerulonephritis), and Class VI (progressive sclerosing lupus nephritis).

For the next assay, the target named is human cathepsin S (Homo sapiens (Human), UniProt P25774). Briefly: In vitro human cathepsin S inhibitory activity (VVR-AMC fluorescence). It counts as biochemical. The note with it: human cathepsin S enzyme, substrate VVR-AMC 40 μM, pH 4.5, 37° C.; read-out: IC50 value of the human cathepsin S inhibitory activity (Data 1). The protocol: Test Example 1 Measurement of a In Vitro Human Cathepsin S Inhibitory Activity
Sequence of human cathepsin S (P25774 115-331): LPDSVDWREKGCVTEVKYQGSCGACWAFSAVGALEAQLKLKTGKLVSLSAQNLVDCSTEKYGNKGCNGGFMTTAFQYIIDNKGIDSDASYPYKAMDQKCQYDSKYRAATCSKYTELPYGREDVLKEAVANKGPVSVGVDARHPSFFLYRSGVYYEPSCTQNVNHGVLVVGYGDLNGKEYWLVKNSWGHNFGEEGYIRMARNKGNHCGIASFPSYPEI
5 μL of a human cathepsin S enzyme (R&D1183-CY-010) was added to a 96-well plate so as to be 20 ng/well. […] A reaction rate at the time of not adding an enzyme in which the test compound was not added and a reaction rate at the time of adding an enzyme in which the test compound was not added were set to 100% inhibition and 0% inhibition, respectively, then, an inhibition rate at each concentration was determined, and IC50 values were calculated by a linear regression method. In the Table, Ex represents Example compound No., and Data 1 represents an IC50 value (nM) of the human cathepsin S inhibitory activity.

Setting [4] is: oral 1 mg/kg daily Day 0 to Day 14, titer at Day 14.

Structures can show the parent of a compound that is named as a salt. A value given as a limit tells only on which side of the number the result lay.

In the case of `CCN1CCC(CCOc2ncc(-c3nc(C#N)nc4c3ncn4C)cc2C(F)(F)F)CC1` [Example 39, 6-{6-[2-(1-ethylpiperidin-4-yl)ethoxy]-5-(trifluoromethyl)pyridin-3-yl}-9-methyl-9H-purine-2-carbonitrile], the concentration for half-maximal inhibition (IC50) – broadly, the concentration at which inhibition is half-maximal – in assay [1] was found to be 0.61 nM. In assay [2] (oral 1 mg/kg), the “inhibition rate of ΔMFI (increased expression of MHC class II in peripheral blood B cells)” value is listed as 61±1.2%. The “inhibition of OVA specific IgG antibody titer in blood plasma” value (“inhibition … in blood plasma” for short) in assay [3] (oral 0.3 mg/kg daily Day 0 to Day 14, titer at Day 14) is 74±8%. Moreover, the “average anti-dsDNA IgG antibody titer” value in the assay on SLE spontaneous model (10 cases, ELISA) is listed as 9,263±1,700 mU/mL. Besides, the urine protein with SLE spontaneous model (all individuals of 10 cases) is recorded as at most 100 mg/dL.
As for `Cl.Cn1ccc2c(-c3ccc(OCCC4CCNCC4)c(C(F)(F)F)c3)nc(C#N)nc21` [Example 2, 7-methyl-4-{4-[2-(piperidin-4-yl)ethoxy]-3-(trifluoromethyl)phenyl}-7H-pyrrolo[2,3-d]pyrimidine-2-carbonitrile monohydrochloride], the IC50 at human cathepsin S was determined as 2.3 nM; in assay [1], 1.2 nM. Also, the “inhibition … in blood plasma” value in assay [3] (setting [4]) is listed as 61±10%.
Take `CN1CCC[C@H]1C(=O)N1CCC(CCOc2ccc(-c3nc(C#N)nc4c3ncn4CC3CCOC3)cc2C(F)(F)F)CC1` (stereo partly shown) [Example 77]: the concentration for half-maximal inhibition (IC50) at human cathepsin S worked out at 2.7 nM; in assay [1], 1.5 nM.
Consider `Cl.Cn1cnc2c(-c3cnc(OCCC4CCNCC4)c(C(F)(F)F)c3)nc(C#N)nc21` [Example 28, 9-methyl-6-{6-[2-(piperidin-4-yl)ethoxy]-5-(trifluoromethyl)pyridin-3-yl}-9H-purine-2-carbonitrile monohydrochloride], for which the “inhibition rate of ΔMFI (increased expression of MHC class II in peripheral blood B cells)” value in assay [2] (oral 0.3 mg/kg) worked out at 40±1.4%. The “inhibition … in blood plasma” value in assay [3] (setting [4]) was found to be 83±2%.
In the case of `CN1CCC[C@H]1C(=O)N1CCC(CCOc2ccc(-c3nc(C#N)nc4c3ccn4CC3CCCO3)cc2C(F)(F)F)CC1` (stereo partly drawn) [Example 15, 4-[4-{2-[1-(1-methyl-L-prolyl)piperidin-4-yl]ethoxy}-3-(trifluoromethyl)phenyl]-7-(tetrahydrofuran-2-ylmethyl)-7H-pyrrolo[2,3-d]pyrimidine-2-carbonitrile monohydrochloride], the IC50 on human cathepsin S was 3.4 nM; in assay [1], 2.1 nM.
For `CN1CCC[C@@H]1C(=O)N1CC[C@@H](OCCOc2ncc(-c3nc(C#N)nc4c3ccn4C)cc2C(F)(F)F)C1` [Example 158], the IC50 in assay [1] was determined as 0.62 nM. For the same molecule, the “inhibition rate of ΔMFI (increased expression of MHC class II in peripheral blood B cells)” value in assay [2] (oral 0.3 mg/kg) was found to be 59±1.5%.
